This note sets out measurements from PubChem BioAssay AID192 (DTP/NCI, 2004).

The subject of this assay is BDF1 mice, B16 melanoma ip, median survival T/C. Briefly: NCI In Vivo Anticancer Drug Screen. Data for tumor model B16 Melanoma (intraperitoneal) in B6D2F1 (BDF1) mice. The following applies: endpoint: median survival time, higher = longer survival. A digest of the protocol:
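The ratio T/C compares compound-treated mice with vehicle-treated controls, using survival or tumor size as the endpoint in a transplantable tumor model.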

[1] abbreviates: dose: 100.0 mg/kg/injection, schedule: Q04DX003 (ip), vehicle: Klucel (hydroxypropylcellulose) (HPC).
[2] abbreviates: dose: 200.0 mg/kg/injection, schedule: Q04DX003 (ip), vehicle: Klucel (hydroxypropylcellulose) (HPC).
Where [3] appears, read: dose: 3.12 mg/kg/injection, schedule: Q01DX009 (ip), vehicle: saline.
The mark [4] stands for this setting: dose: 6.25 mg/kg/injection, schedule: Q01DX009 (ip), vehicle: saline.
Setting [5] is: dose: 12.5 mg/kg/injection, schedule: Q01DX009 (ip), vehicle: saline.
[6] abbreviates: dose: 25.0 mg/kg/injection, schedule: Q01DX009 (ip), vehicle: saline.
The mark [7] stands for this setting: dose: 50.0 mg/kg/injection, schedule: Q01DX009 (ip), vehicle: Klucel (hydroxypropylcellulose) (HPC).
Setting [8] is: dose: 100.0 mg/kg/injection, schedule: Q01DX009 (ip), vehicle: saline with Tween-80.
Setting [9] is: dose: 100.0 mg/kg/injection, schedule: Q01DX009 (ip), vehicle: Klucel (hydroxypropylcellulose) (HPC).
The mark [10] stands for this setting: dose: 200.0 mg/kg/injection, schedule: Q01DX009 (ip), vehicle: Klucel (hydroxypropylcellulose) (HPC).
The mark [11] stands for this setting: dose: 400.0 mg/kg/injection, schedule: Q01DX009 (ip), vehicle: Klucel (hydroxypropylcellulose) (HPC).
The mark [12] stands for this setting: dose: 50.0 mg/kg/injection, schedule: Q01DX009 (ip), vehicle: saline.

SMILES strings stand for the structures. Several values for one entry are separate records, joined by “and”; a condition that tells them apart may be missing. Equal entries are not always repeated. Inconclusive results and toxic doses are left out. Numbered stars: 1 amine (or outer) side, 2 acyl side, 3 side chain; on linkers, the order of the positions; unused ones are H or OH. Bridge positions count the residues as written; N and C are the ends. Square brackets hold non-standard residues; d marks the D form. Peptide text beside a SMILES is read from it. I, II: the chains in the order shown. Actinocin(9to1) = Cc1c2oc3c(C)ccc(C(=O)[*:1])c3nc-2c(C(=O)[*:2])c(N)c1=O; NMeV = CN[CH](C(=O)O)C(C)C; Sar = CNCC(=O)O

Take `O=C1N(CC2CO2)CCN1CC1CO1` (configuration not stated): the T/C (dose: 12.5 mg/kg/injection, schedule: Q01DX009 (ip), vehicle: suspension in saline) was 106 % of control; the T/C (dose: 25.0 mg/kg/injection, schedule: Q01DX009 (ip), vehicle: suspension in saline) is 124 % of control; the T/C (dose: 100.0 mg/kg/injection, schedule: Q01DX009 (ip), vehicle: suspension in saline) is 193 % of control.

Consider `CCCCCCCCCCCCCCCCCC(=O)NCNC(=O)CCCCCCCCCCCCCCCCC`, for which the T/C (dose: 2.5 mg/kg/injection, schedule: Q01DX009 (ip), vehicle: saline with Tween-80) was 102 % of control; the T/C (dose: 4.68 mg/kg/injection, schedule: Q04DX003 (ip), vehicle: saline with Tween-80) was 86 % of control; the T/C (dose: 5.0 mg/kg/injection, schedule: Q01DX009 (ip), vehicle: saline with Tween-80) is 100 % of control; the T/C (dose: 9.37 mg/kg/injection, schedule: Q04DX003 (ip), vehicle: saline with Tween-80) was 97 % of control; the T/C (dose: 10.0 mg/kg/injection, schedule: Q01DX009 (ip), vehicle: saline with Tween-80) was 87 % of control.

For the compound `O=S(=O)(/N=C1C=C/C(=N/S(=O)(=O)c2ccccc2)C2C3C=CC(C3)C/12)c1ccccc1` (configuration not stated), the T/C is 92 % of control under setting [1] and 86 % of control under setting [2].

On to `CC12CCC(O)CC1CCC1C2CCC2(C)C(C3=CC(=O)OC3)CCC12O` (configuration not stated), for which the T/C by setting is: (dose: 2.0 mg/kg/injection, schedule: Q01DX009 (ip), vehicle: Klucel (hydroxypropylcellulose) (HPC)) 105 % of control; (dose: 4.0 mg/kg/injection, schedule: Q01DX009 (ip), vehicle: Klucel (hydroxypropylcellulose) (HPC)) 96 % of control; (dose: 8.0 mg/kg/injection, schedule: Q01DX009 (ip), vehicle: Klucel (hydroxypropylcellulose) (HPC)) 98 % of control.

Consider `CS(=O)(=O)Nc1ccccc1N`, for which the T/C reads like this: (dose: 1.56 mg/kg/injection, schedule: Q01DX009 (ip), vehicle: saline) 95 % of control; under setting [3], 99 % of control; under setting [4], 98 % of control.

For the compound `COc1ccc2nc3cc(Cl)ccc3c(NCCNCCNCCNc3c4ccc(Cl)cc4nc4ccc(OC)cc34)c2c1`, the T/C (dose: 3.12 mg/kg/injection, schedule: Q01DX009 (ip), vehicle: Klucel (hydroxypropylcellulose) (HPC)) was 103 % of control; the T/C (dose: 6.25 mg/kg/injection, schedule: Q01DX009 (ip), vehicle: Klucel (hydroxypropylcellulose) (HPC)) is 107 % of control; the T/C (dose: 12.5 mg/kg/injection, schedule: Q01DX009 (ip), vehicle: Klucel (hydroxypropylcellulose) (HPC)) was 113 % of control; the T/C (dose: 12.5 mg/kg/injection, schedule: Q01DX009 (ip), vehicle: saline with Tween-80) is 164 % of control; the T/C under setting [5] was 155 % of control; the T/C (dose: 25.0 mg/kg/injection, schedule: Q01DX009 (ip), vehicle: Klucel (hydroxypropylcellulose) (HPC)) was 113 % of control. The T/C was 160 % of control (dose: 25.0 mg/kg/injection, schedule: Q01DX009 (ip), vehicle: saline with Tween-80); 150 % of control under setting [6]; 113 % of control under setting [7]; 119 % of control (dose: 50.0 mg/kg/injection, schedule: Q01DX009 (ip), vehicle: saline with Tween-80); 90 % of control under setting [8].

As to `Cc1c2oc3c(C)ccc(C(=O)NC4C(=O)NC(C(C)C)C(=O)N(C)CC(=O)N(C)CC(=O)N(C)C(C(C)C)C(=O)OC4C)c3nc-2c(C(=O)NC2C(=O)NC(C(C)C)C(=O)N(C)CC(=O)N(C)CC(=O)N(C)C(C(C)C)C(=O)OC2C)c(N)c1=O` (configuration not stated) (I: TV[Sar][Sar][NMeV] / II: TV[Sar][Sar][NMeV]; ester I:1-I:C, II:1-II:C; linker I:N-II:N via Actinocin(9to1); configuration not given here), the T/C is 161 % of control (dose: 0.71 mg/kg/injection, schedule: Q01DX009 (ip), vehicle: water); 161 % of control (dose: 1.07 mg/kg/injection, schedule: Q01DX009 (ip), vehicle: water); 112 % of control (dose: 125.0 micrograms/kg/injection, schedule: Q01DX009 (ip), vehicle: saline + alcohol); 117 % of control and 123 % of control (dose: 375.0 micrograms/kg/injection, schedule: Q04DX003 (ip), vehicle: saline + alcohol); 162 % of control (dose: 1500.0 micrograms/kg/injection, schedule: Q04DX003 (ip), vehicle: saline + alcohol); 159 % of control (dose: 3000.0 micrograms/kg/injection, schedule: Q04DX003 (ip), vehicle: saline + alcohol).

Turning to `Cc1ccc(NS(=O)(=O)c2ccc(F)cc2)cc1Cl`, the T/C runs as follows: under setting [9], 90 % of control; under setting [1], 103 % of control; under setting [10], 100 % of control; under setting [2], 100 % of control; under setting [11], 86 % of control; (dose: 400.0 mg/kg/injection, schedule: Q04DX003 (ip), vehicle: Klucel (hydroxypropylcellulose) (HPC)) 110 % of control.

As for `CN1CCCN(C(c2ccccc2)c2ccc(Cl)cc2)CC1` (configuration not stated), the T/C is, setting by setting: (dose: 1.95 mg/kg/injection, schedule: Q01DX009 (ip), vehicle: saline) 92 % of control; (dose: 3.9 mg/kg/injection, schedule: Q01DX009 (ip), vehicle: saline) 105 % of control; (dose: 7.81 mg/kg/injection, schedule: Q01DX009 (ip), vehicle: saline) 105 % of control; (dose: 15.62 mg/kg/injection, schedule: Q01DX009 (ip), vehicle: saline) 97 % of control; (dose: 31.25 mg/kg/injection, schedule: Q01DX009 (ip), vehicle: saline) 94 % of control.

On to `O=CNC(CSC(c1ccccc1)c1ccccc1)C(=O)O` (configuration not stated), for which the T/C is 105 % of control (dose: 50.0 mg/kg/injection, schedule: Q04DX003 (ip), vehicle: Klucel (hydroxypropylcellulose) (HPC)); 100 % of control under setting [1]; 94 % of control under setting [2].

Take `c1ccc(C2CCCCCC2)cc1`: the T/C is 108 % of control (dose: 6.25 mg/kg/injection, schedule: Q01DX009 (ip), vehicle: other); 98 % of control (dose: 12.5 mg/kg/injection, schedule: Q01DX009 (ip), vehicle: other); 111 % of control (dose: 25.0 mg/kg/injection, schedule: Q01DX009 (ip), vehicle: other); 109 % of control (dose: 50.0 mg/kg/injection, schedule: Q01DX009 (ip), vehicle: other); 89 % of control (dose: 100.0 mg/kg/injection, schedule: Q01DX009 (ip), vehicle: other).

`CC(Oc1ccccc1)C(=O)c1ccccc1` (configuration not stated): the T/C is, setting by setting: under setting [8], 90 % of control; (dose: 200.0 mg/kg/injection, schedule: Q01DX009 (ip), vehicle: saline with Tween-80) 90 % of control; (dose: 400.0 mg/kg/injection, schedule: Q01DX009 (ip), vehicle: saline with Tween-80) 93 % of control.

On to `CC1(C)[C@H]2CC[C@@]1(C)C(=O)[C@H]2[N+](=O)[O-]`, for which the T/C is 114 % of control under setting [9], 111 % of control under setting [10] and 108 % of control under setting [11].

`COC(=O)C(c1ccccc1)C1CCCCN1` (configuration not stated): the T/C is 97 % of control under setting [3]; 100 % of control under setting [4]; 88 % of control under setting [5]; 88 % of control under setting [6]; 97 % of control under setting [12].

Take `NCC1OC(OC2C(CO)OC(OC3C(O)C(N)CC(N)C3OC3OC(CO)C(O)C(O)C3N)C2O)C(N)C(O)C1O` (configuration not stated): the T/C under setting [12] was 114 % of control; the T/C (dose: 100.0 mg/kg/injection, schedule: Q01DX009 (ip), vehicle: saline) was 108 % of control; the T/C (dose: 200.0 mg/kg/injection, schedule: Q01DX009 (ip), vehicle: saline) was 111 % of control; the T/C (dose: 400.0 mg/kg/injection, schedule: Q01DX009 (ip), vehicle: saline) was 112 % of control.

For `CCNCCCCCCNCC`, the T/C reads like this: under setting [5], 98 % of control; under setting [6], 90 % of control.

Take `CCN(CC)c1ccc(C=Nc2cccc(C(F)(F)F)c2)cc1`: the T/C under setting [7] is 103 % of control, the T/C under setting [9] was 96 % of control and the T/C under setting [10] was 96 % of control.
